Biological target: T1, Bcl-2 protein (Recombinant Human Bcl-2 Protein) (Homo sapiens, UniProt P10415)
T1 construct: purchased Novus Biologicals NBP2-34889
Assay: AS-MS evaluation of binding of the Example 4 mixture library (1200 compounds/well) to Bcl-2, ASMS ratio (%)
Procedure, shortened: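 A pooled 1200-compound mixture (20 nM each final) was incubated with 20 μM recombinant human Bcl-2 in pH 7.4 Tris-HCl buffer with NaCl, Tween-20 and DTT for 1 h at 23° C. in the dark. Bound ligands were separated by spin-column SEC and measured by reverse-phase LC/MS; ASMS ratio (%) was calculated against protein-free unfiltered standard and protein-free SEC blank.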

[1] = replicate n = 1, mixture library, value belongs to the MS peak assigned to the compound
[2] = replicate n = 2, mixture library, value belongs to the MS peak assigned to the compound
[3] = AS-MS, Example 4 mixture library, Bcl-2, replicate n = 1
[4] = AS-MS, Example 4 mixture library, Bcl-2, replicate n = 2

T1 sequence (P10415 whole entry): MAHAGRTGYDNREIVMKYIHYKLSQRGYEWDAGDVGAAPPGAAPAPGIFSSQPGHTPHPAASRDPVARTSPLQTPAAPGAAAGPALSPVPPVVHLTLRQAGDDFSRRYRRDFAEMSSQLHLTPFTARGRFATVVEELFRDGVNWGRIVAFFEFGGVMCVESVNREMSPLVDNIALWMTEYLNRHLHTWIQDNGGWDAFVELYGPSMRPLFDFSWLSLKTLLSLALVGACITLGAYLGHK

| Compound | ASMS ratio (%) n = 1 [1] [%] | ASMS ratio (%) n = 2 [2] [%] | ASMS ratio (%) n = 1 [3] [%] | ASMS ratio (%) n = 2 [4] [%] |
| --- | --- | --- | --- | --- |
| CCOc1cccc(-c2ccc(CN3CCN(c4ccc(C(=O)NS(=O)(=O)C(C)(C)C)nn4)CC3)cc2C)c1 [Compound B2L073-01] | 0.0 | 0.0 |  |  |
| CCOc1cncc(-c2ccc(CN3CCN(c4ccc(C(=O)NS(=O)(=O)C(C)(C)C)nn4)CC3)cc2C)c1 [Compound B2L074-01] | −1.0 | 1.4 |  |  |
| CCOc1cccc(-c2ccc(CN3CCN(c4ccc(C(=O)NS(=O)(=O)C(C)(C)C)nn4)CC3)c(CC)c2)c1 [Compound B2L075-01] | 0.0 | 33.9 |  |  |
| CCOc1cncc(-c2ccc(CN3CCN(c4ccc(C(=O)NS(=O)(=O)C(C)(C)C)nn4)CC3)c(CC)c2)c1 [Compound B2L076-01] | 1.8 | −0.3 |  |  |
| CCOc1cccc(-c2ccc(CN3CCN(c4ccc(C(=O)NS(=O)(=O)C(C)(C)C)nn4)CC3)cc2F)c1 [Compound B2L077-01, N-tert-Butylsulfonyl-6-[4-[4-(3-ethoxyphenyl)-3-fluorophenyl]methyl]piperazin-1-yllpyridazine-3-carboxamide] | 0.0 | 0.0 |  |  |
| CCOc1cncc(-c2ccc(CN3CCN(c4ccc(C(=O)NS(=O)(=O)C(C)(C)C)nn4)CC3)cc2F)c1 [Compound B2L078-01, N-tert-Butylsulfonyl-6-[4-[[4-(5-ethoxypyridin-3-yl)-3-fluorophenyl]methyl]piperazin-1-yl]pyridazine-3-carboxamide] | 1.1 | −0.7 |  |  |
| CCOc1cccc(-c2ccc(CN3CCN(c4ccc(C(=O)NS(=O)(=O)C(C)(C)C)nn4)CC3)c(OC)c2)c1 [Compound B2L079-01] | 0.0 | 0.0 |  |  |
| CCOc1cncc(-c2ccc(CN3CCN(c4ccc(C(=O)NS(=O)(=O)C(C)(C)C)nn4)CC3)c(OC)c2)c1 [Compound B2L080-01] | 0.0 | 0.0 |  |  |
| CCOc1cccc(-c2cc(CN3CCN(c4ccc(C(=O)NS(=O)(=O)C(C)(C)C)nn4)CC3)cc(OCC)c2)c1 [Compound B2L081-01, N-tert-Butylsulfonyl-6-[4-[3-ethoxy-5-(3-ethoxyphenyl)phenyl]methyl]piperazin-1-yllpyridazine-3-carboxamide] |  |  | 0.0 | 0.0 |
| CCOc1cncc(-c2cc(CN3CCN(c4ccc(C(=O)NS(=O)(=O)C(C)(C)C)nn4)CC3)cc(OCC)c2)c1 [Compound B2L082-01] |  |  | 2.6 | −1.2 |
| CCOc1cccc(-c2cc(CN3CCN(c4ccc(C(=O)NS(=O)(=O)C(C)(C)C)nn4)CC3)cc(OC(C)C)c2)c1 [Compound B2L083-01] |  |  | 0.0 | 0.0 |
| CCOc1cncc(-c2cc(CN3CCN(c4ccc(C(=O)NS(=O)(=O)C(C)(C)C)nn4)CC3)cc(OC(C)C)c2)c1 [Compound B2L084-01, N-tert-Butylsulfonyl-6-[4-[3-(5-ethoxypyridin-3-yl)-5-propan-2-yloxyphenylmethyl]piperazin-1-yl]pyridazine-3-carboxamide] |  |  | −3.0 | −1.9 |
| CCOc1cccc(-c2cc(OC)c(CN3CCN(c4ccc(C(=O)NS(=O)(=O)C(C)(C)C)nn4)CC3)c(OC)c2)c1 [Compound B2L085-01, N-tert-Butylsulfonyl-6-[4-[[4-(3-ethoxyphenyl)-2,6-dimethoxyphenyl]methyl]piperazin-1-yl]pyridazine-3-carboxamide] |  |  | 0.0 | 0.0 |
| CCOc1cncc(-c2cc(OC)c(CN3CCN(c4ccc(C(=O)NS(=O)(=O)C(C)(C)C)nn4)CC3)c(OC)c2)c1 [Compound B2L086-01] |  |  |  | 0.0 |
| CCOc1cccc(-c2cc(CN3CCN(c4ccc(C(=O)NS(=O)(=O)C(C)(C)C)nn4)CC3)cc(C(F)(F)F)c2)c1 [Compound B2L087-01, N-tert-Butylsulfonyl-6-[4-[[3-(3-ethoxyphenyl)-5-(trifluoromethyl)phenyl]methyl]piperazin-1-yl]pyridazine-3-carboxamide] |  |  | 1.9 | −24.6 |
| CCOc1cncc(-c2cc(CN3CCN(c4ccc(C(=O)NS(=O)(=O)C(C)(C)C)nn4)CC3)cc(C(F)(F)F)c2)c1 [Compound B2L088-01] |  |  | 0.0 | 2.8 |

| Compound | ASMS ratio (%) n = 1 [1] [%] | ASMS ratio (%) n = 2 [2] [%] | ASMS ratio (%) n = 1 [3] [%] | ASMS ratio (%) n = 2 [4] [%] |
| --- | --- | --- | --- | --- |
| CCOc1cccc(-c2cc(CN3CCN(c4ccc(C(=O)NS(=O)(=O)C(C)(C)C)nn4)CC3)cc(OC(F)(F)F)c2)c1 [Compound B2L089-01, N-tert-Butylsulfonyl-6-[4-[[3-(3-ethoxyphenyl)-5-(trifluoromethoxy)phenyl]methyl]piperazin-1-yl]pyridazine-3-carboxamide] |  |  | 0.0 | 0.0 |
| CCOc1cncc(-c2cc(CN3CCN(c4ccc(C(=O)NS(=O)(=O)C(C)(C)C)nn4)CC3)cc(OC(F)(F)F)c2)c1 [Compound B2L090-01] |  |  | 0.0 | 0.0 |
| CCOc1cccc(-c2ccc(CN3CCN(c4ccc(C(=O)NS(=O)(=O)C(C)(C)C)nn4)CC3)c3ccccc23)c1 [Compound B2L091-01] |  |  | 0.0 | 0.0 |
| CCOc1cncc(-c2ccc(CN3CCN(c4ccc(C(=O)NS(=O)(=O)C(C)(C)C)nn4)CC3)c3ccccc23)c1 [Compound B2L092-01, N-tert-Butylsulfonyl-6-[4-[[4-(5-ethoxypyridin-3-yl)naphthalen-1-yl]methyl]piperazin-1-yl]pyridazine-3-carboxamide] |  |  | 5.5 | 7.8 |
| CCOc1cccc(-c2csc(CN3CCN(c4ccc(C(=O)NS(=O)(=O)C(C)(C)C)nn4)CC3)c2)c1 [Compound B2L093-01] |  |  |  | 0.0 |
| CCOc1cncc(-c2csc(CN3CCN(c4ccc(C(=O)NS(=O)(=O)C(C)(C)C)nn4)CC3)c2)c1 [Compound B2L094-01, N-tert-Butylsulfonyl-6-[4-[[4-(5-ethoxypyridin-3-yl)thiophen-2-yl]methyl]piperazin-1-yl]pyridazine-3-carboxamide] |  |  | 0.2 | 1.8 |
| CCOc1cccc(C#Cc2ccccc2CN2CCN(c3ccc(C(=O)NS(=O)(=O)C(C)(C)C)nn3)CC2)c1 [Compound B2L095-01] |  |  | 0.0 | 0.0 |
| CCOc1cncc(C#Cc2ccccc2CN2CCN(c3ccc(C(=O)NS(=O)(=O)C(C)(C)C)nn3)CC2)c1 [Compound B2L096-01] |  |  | 0.0 | 0.0 |
| CCOc1cccc(-c2ccc(C(C)N3CCN(c4ccc(C(=O)NS(=O)(=O)C(C)(C)C)cc4)CC3)cc2)c1 (stereo not shown) [Compound B2L097-01, N-tert-Butylsulfonyl-4-[4-[1-[4-(3-ethoxyphenyl)phenyl]ethyl]piperazin-1-yl]benzamide] |  |  | 0.0 | 0.0 |
| CCOc1cncc(-c2ccc(C(C)N3CCN(c4ccc(C(=O)NS(=O)(=O)C(C)(C)C)cc4)CC3)cc2)c1 (stereo not shown) [Compound B2L098-01, N-tert-Butylsulfonyl-4-[4-[1-[4-(5-ethoxypyridin-3-yl)phenyl]ethyl]piperazin-1-yl]benzamide] |  |  | 3.9 | −5.0 |
| CCOc1cncc(-c2ccc(C(C)N3CCN(c4ccc(C(=O)NS(=O)(=O)C(C)(C)C)cc4)CC3)c(F)c2)c1 (stereo not shown) [Compound B2L100-01, N-tert-Butylsulfonyl-4-[4-[1-[4-(5-ethoxypyridin-3-yl)-2-fluorophenyl]ethyl]piperazin-1-yl]benzamide] |  |  | 0.0 | 0.0 |
| CCOc1cccc(-c2csc(C(=O)N3CCN(c4ccc(C(=O)NS(=O)(=O)CCC(F)(F)F)nn4)CC3)c2)c1 [Compound B2N001-01, 6-[4-[4-(3-Ethoxyphenyl)thiophene-2-carbonyl]piperazin-1-yl]-N-(3,3,3-trifluoropropylsulfonyl)pyridazine-3-carboxamide] |  |  |  | 0.0 |
| CCOc1cncc(-c2csc(C(=O)N3CCN(c4ccc(C(=O)NS(=O)(=O)CCC(F)(F)F)nn4)CC3)c2)c1 [Compound B2N002-01, 6-[4-[4-(5-Ethoxypyridin-3-yl)thiophene-2-carbonyl]piperazin-1-yl]-N-(3,3,3-trifluoropropylsulfonyl)pyridazine-3-carboxamide] |  |  | 0.0 | 0.0 |
| CCOc1cccc(-c2ccc(C(=O)N3CCN(c4ccc(C(=O)NS(=O)(=O)CCC(F)(F)F)nn4)CC3)cc2C)c1 [Compound B2N003-01, 6-[4-[4-(3-Ethoxyphenyl)-3-methylbenzoyl]piperazin-1-yl]-N-(3,3,3-trifluoropropylsulfonyl)pyridazine-3-carboxamide] |  |  | 0.0 | 0.0 |
| CCOc1cncc(-c2ccc(C(=O)N3CCN(c4ccc(C(=O)NS(=O)(=O)CCC(F)(F)F)nn4)CC3)cc2C)c1 [Compound B2N004-01, 6-[4-[4-(5-Ethoxypyridin-3-yl)-3-methylbenzoyl]piperazin-1-yl]-N-(3,3,3-trifluoropropylsulfonyl)pyridazine-3-carboxamide] |  |  | 1.2 | −2.0 |
| CCOc1cccc(C#Cc2ccccc2C(=O)N2CCN(c3ccc(C(=O)NS(=O)(=O)CCC(F)(F)F)nn3)CC2)c1 [Compound B2N007-01, 6-[4-[2-[2-(3-Ethoxyphenyl)ethynyl]benzoyl]piperazin-1-yl]-N-(3,3,3-trifluoropropylsulfonyl)pyridazine-3-carboxamide] |  |  | 0.0 | 0.0 |
